Measured values reported in ChEMBL document CHEMBL1154875, “Pharmacophoric model building for antitubercular activity of the individual Schiff bases of small combinatorial library” (2010).

Tested on: Mycobacterium tuberculosis
Experiment: Antimicrobial activity against Mycobacterium tuberculosis H37Rv ATCC 27294 at 6.25 ug/ml after 24 hrs by Microplate Almar blue assay
Format: functional
Conditions: H37Rv ATCC 27294, 24 h

| Compound | inhibition at 6.25 µg/mL [%] |
| --- | --- |
| O=C(NN/C=C/c1ccccc1)c1cc(/C=C\c2ccco2)on1 | 80 |
| O=C1Nc2ccccc2/C1=N\NC(=O)c1cccnc1 | 57 |
| CC(=O)OC(O/C(C)=N/NC(=O)c1ccncc1)c1ccc([N+](=O)[O-])o1 (centres undefined) | 84 |
| O=C1Nc2ccccc2/C1=N\NC(=O)c1cc(/C=C\c2ccco2)on1 | 39 |
| O=C1Nc2ccccc2/C1=N\NC(=O)c1ccco1 | 41 |
| O=C(N/N=C/c1ccccc1)c1ccncc1 [N'-BENZYLIDENE ISONICOTINOHYDRAZIDE] | 51 |
| O=C(N/N=C/c1ccc([N+](=O)[O-])cc1)c1ccco1 | 35 |
| O=C(N/N=C/c1ccc([N+](=O)[O-])cc1)c1cc(/C=C\c2ccco2)on1 | 37 |
| CC(=O)OC(O/C(C)=N/NC(=O)c1cc(/C=C\c2ccco2)on1)c1ccc([N+](=O)[O-])o1 (centres undefined) | 59 |
| O=C(NN/C=C/c1ccccc1)c1ccncc1 | 54 |
| C/C(=N/NC(=O)c1cc(/C=C\c2ccco2)on1)c1ccc([N+](=O)[O-])cc1 | 66 |
| CC(=O)OC(O/C(C)=N/NC(=O)c1ccco1)c1ccc([N+](=O)[O-])o1 (centres undefined) | 99 |
| C/C(=N\NC(=O)c1ccncc1)c1ccc([N+](=O)[O-])cc1 | 99 |
| C/C(=N/NC(=O)c1ccco1)c1ccc([N+](=O)[O-])cc1 | 62 |
